Test results: patent publication US5279836A, “Topical use of calcitonin for the preparation of medications in senile idiopathic cataract and a pharmaeutical composition thereof” (Mediator S.R.L., priority 1991, dated 1994)
Positions of bridges follow the written chain, without caps; N, C: chain ends. Non-standard residues stand in square brackets, D forms with d. Residues, ends and D or L forms follow the SMILES beside them. Asu = N[C@@H](CCCCCC(=O)O)C(=O)O

Experiments:
corneal epithelium = assay: Systemic and local (corneal) tolerance after topical instillation of the collyrium; type: in vivo, rabbit; conditions: rabbits, topical collyrium 5 U.MRC; 2% fluorescein test
Description: After the Keratocentesis a new test of the corneal surface integrity was performed with instillation of 2% fluorescein and washing with physiological solution.

sheep lens = sheep lens in vitro, incubation; cited from earlier work

Molecule	systemic phenomena of drug intolerance and local toxic phenomena (corneal epithelium) (corneal epithelium)	calcium levels in the lens (sheep lens)
CC(C)C[C@H](NC(=O)[C@H](CCCCN)NC(=O)CNC(=O)[C@H](CC(C)C)NC(=O)[C@@H](NC(=O)[C@@H]1CCCCCC(=O)N[C@@H](CO)C(=O)N[C@@H](CC(N)=O)C(=O)N[C@@H](CC(C)C)C(=O)N[C@@H](CO)C(=O)N[C@@H]([C@@H](C)O)C(=O)N1)C(C)C)C(=O)N[C@@H](CO)C(=O)N[C@@H](CCC(N)=O)C(=O)N[C@@H](CCC(=O)O)C(=O)N[C@@H](CC(C)C)C(=O)N[C@@H](Cc1c[nH]cn1)C(=O)N[C@@H](CCCCN)C(=O)N[C@@H](CC(C)C)C(=O)N[C@@H](CCC(N)=O)C(=O)N[C@H](C(=O)N[C@@H](Cc1ccc(O)cc1)C(=O)N1CCC[C@H]1C(=O)N[C@@H](CCCNC(=N)N)C(=O)N[C@H](C(=O)N[C@@H](CC(=O)O)C(=O)N[C@H](C(=O)NCC(=O)N[C@@H](C)C(=O)NCC(=O)N[C@H](C(=O)N1CCC[C@H]1C(N)=O)[C@@H](C)O)C(C)C)[C@@H](C)O)[C@@H](C)O [elcatonin] (SNLST[Asu]VLGKLSQELHKLQTYPRTDVGAGTP-NH2; lactam N-6)	No animal showed systemic phenomena of the drug intolerance nor local toxic phenomena	–
calcitonin	–	raises the calcium levels proportionally with the incubation times
